Source: PubChem BioAssay AID1963840 (Molecular Pharmacology Branch, DTP, NCI, 2024)

Test system: 695427-040-R-J1-PDC complex spheroid viability
Assay: Anticancer human tumor 695427-040-R-J1-PDC patient-derived colon adenocarcinoma cell line growth inhibition [POLQ]
Settings: for IC50: curve of first compound; for viability, T/C: stronger effect = lower value
Method: Multicellular complex tumor spheroid response to Polymerase (POL) inhibitors (novobiocin, ART-558, RP6685) in combination with a variety of drugs and investigational agents in selected tumor cell lines
The POL inhibitors (novobiocin, ART-558, and RP6685) were evaluated both individually and in combination with standard of care and investigational anticancer small molecules within a complex spheroid model of solid tumors. . Complex spheroids include a stromal component modeled by human endothelial cells (HUVEC) and fibroblasts modeled by human mesenchymal stem cells (MSCs). The concentration ranges selected for each drug and investigational agent were based upon clinically achievable concentrations if the clinical Cmax of the agent was known.
Compounds. The drugs and investigational agents: novobiocin (NSC847541), ART-558 (NSC835418), RP-6685 (NSC848927), peposertib (NSC802822), ceralasertib (NSC780249), elimusertib (NSC800525), camonsertib (NSC841442), AZD-1390 (NSC803789), olaparib (NSC753686), talazoparib (NSC767125), rucaparib (NSC756644), sotorasib (NSC818433), MRTX-1133 (NSC836407), SN-38 (NSC673596), topotecan (NSC609699), epotoside (NSC141540), doxorubicin (NSC123127), gemcitabine (NSC613327), 5-fluorouracil (NSC19893), paclitaxel (NSC125973), vemurafenib (NSC761431), MSA-2 (NSC828583), SN-011 (NSC837082), adavosertib (NSC754352), prexasertib (NSC758257), carboplatin (NSC241240) and oxaliplatin (NSC266046), were obtained from the National Cancer Institute (NCI) Developmental Therapeutics Program Chemical Repository (21). The FDA-approved anticancer drug set is available from the Developmental Therapeutics Program at https://dtp.cancer.gov/organization/dscb/obtaining/. […] The stock solutions were prepared in dimethyl sulfoxide (DMSO, Sigma-Aldrich, St. Louis, MO, cat. D2650), except for the platinum compounds which were prepared in saline (Quality Biological, Gaithersburg, MD, cat. 114-055-101), at 800-fold the tested concentration and stored at -70 degrees C prior to their use. All drugs and investigational agents were tested over a range starting from a high concentration at or near the clinical Cmax and decreasing in half-log increments. If the clinical Cmax for an agent had not been determined, the highest concentration tested was 10 microM, except for SN-38, which was tested at a high concentration of 1 microM.
Cell Culture. All cells were maintained in an incubator at 37 degrees C and 5% CO2 with 95% humidity. The PDC lines were cultured according to standard operating procedures established by the NCI PDMR (https://pdmr.cancer.gov). Table 3 of the manuscript, lists the cell lines along with the number of the three cell types plated to form the mct-spheroids and media for tumor cell growth. After thawing, all PDC lines, except 997537-175-T-J1-PDC and 415267-285-R-J2-PDC, were cultured in Matrigel-coated flasks prepared with a working solution of 1X Ham's F-12 nutrient mix, without supplementation (Thermo Fisher Scientific, cat. 11765054), 100 U/mL penicillin-streptomycin (Thermo Fisher Scientific, cat. 15140122), and 2.5% Matrigel (Corning Inc., Corning, NY, cat. 354248) for the first three passages. The two PDC lines 997537-175-T-J1-PDC and 415267-285-R-J2-PDC were cultured on uncoated flasks. The 857933-349-R-J2-PDC line was cultured in 6C/Colon 1B media containing advanced DMEM/F-12 (Thermo Fisher Scientific, cat. 12634028), 10 mM HEPES (Thermo Fisher Scientific, cat. 15630080), 1X GlutaMAX supplement (Thermo Fisher Scientific, cat. 35050061), 0.1 mg/mL primocin (InvivoGen, San Diego, CA, cat. ant-pm-2), 10% defined fetal bovine serum, heat inactivated (HyClone Laboratories Inc., Logan, UT, cat. SH30070.03HI), 50% L-WRN conditioned media (ATCC, cat. CRL-3276), 1.25 mM N-Acetyl-L-cysteine (Sigma-Aldrich, cat. A9165), 10 mM nicotinamide (Sigma-Aldrich, cat. N0636), 1X B-27 supplement (Thermo Fisher Scientific, cat. 17504044), 1X N-2 supplement (Thermo Fisher Scientific, cat. […]

[1] = second compound 0.0316 µM, first compound 0.0316 µM
[2] = second compound 0.0316 µM, first compound 0.1 µM
[3] = second compound 0.0316 µM, first compound 0.316 µM
[4] = second compound 0.0316 µM, first compound 1 µM
[5] = second compound 0.0316 µM, first compound 3.16 µM
[6] = second compound 0.0316 µM, first compound 10 µM
[7] = second compound 0.1 µM, first compound 0.0316 µM
[8] = second compound 0.1 µM, first compound 0.1 µM
[9] = second compound 0.1 µM, first compound 0.316 µM
[10] = second compound 0.1 µM, first compound 1 µM
[11] = second compound 0.1 µM, first compound 3.16 µM
[12] = second compound 0.1 µM, first compound 10 µM
[13] = second compound 0.316 µM, first compound 0.0316 µM
[14] = second compound 0.316 µM, first compound 0.1 µM
[15] = second compound 0.316 µM, first compound 0.316 µM
[16] = second compound 0.316 µM, first compound 1 µM
[17] = second compound 0.316 µM, first compound 3.16 µM
[18] = second compound 0.316 µM, first compound 10 µM
[19] = second compound 1 µM, first compound 0.0316 µM
[20] = second compound 1 µM, first compound 0.1 µM
[21] = second compound 1 µM, first compound 0.316 µM
[22] = second compound 1 µM, first compound 1 µM
[23] = second compound 1 µM, first compound 3.16 µM
[24] = second compound 1 µM, first compound 10 µM
[25] = second compound 3.16 µM, first compound 0.0316 µM
[26] = second compound 3.16 µM, first compound 0.1 µM
[27] = second compound 3.16 µM, first compound 0.316 µM
[28] = second compound 3.16 µM, first compound 1 µM
[29] = second compound 3.16 µM, first compound 3.16 µM
[30] = second compound 3.16 µM, first compound 10 µM
[31] = second compound 10 µM, first compound 0.0316 µM
[32] = second compound 10 µM, first compound 0.1 µM
[33] = second compound 10 µM, first compound 0.316 µM
[34] = second compound 10 µM, first compound 1 µM
[35] = second compound 10 µM, first compound 3.16 µM
[36] = second compound 10 µM, first compound 10 µM
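Also: spheroids exposed to compounds for seven days.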
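For viability, T/C in this document: 100% = DMSO vehicle control viability.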

CC1COCCN1c1cc(C2(S(C)(=N)=O)CC2)nc(-c2ccnc3[nH]ccc23)n1 (centres undefined) + COC1C(OC(N)=O)C(O)C(Oc2ccc3c(O)c(NC(=O)c4ccc(O)c(CC=C(C)C)c4)c(=O)oc3c2C)OC1(C)C
IC50 (second compound 0.0316 µM): > 10 µM | IC50 (second compound 0.1 µM): > 10 µM | IC50 (second compound 0.316 µM): > 10 µM | IC50 (second compound 1 µM): > 10 µM | IC50 (second compound 3.16 µM): > 10 µM | IC50 (second compound 10 µM): > 10 µM | viability, T/C [1]: 96.3% | viability, T/C [2]: 101% | viability, T/C [3]: 101% | viability, T/C [4]: 101% | viability, T/C [5]: 93.9% | viability, T/C [6]: 86% | viability, T/C [7]: 124% | viability, T/C [8]: 89.4% | viability, T/C [9]: 104% | viability, T/C [10]: 96.8% | viability, T/C [11]: 97.6% | viability, T/C [12]: 80.8% | viability, T/C [13]: 104% | viability, T/C [14]: 89.7% | viability, T/C [15]: 101% | viability, T/C [16]: 101% | viability, T/C [17]: 101% | viability, T/C [18]: 81.7% | viability, T/C [19]: 104% | viability, T/C [20]: 105% | viability, T/C [21]: 102% | viability, T/C [22]: 99.3% | viability, T/C [23]: 107% | viability, T/C [24]: 86.5% | viability, T/C [25]: 94.1% | viability, T/C [26]: 90.7% | viability, T/C [27]: 99.7% | viability, T/C [28]: 97.1% | viability, T/C [29]: 107% | viability, T/C [30]: 85.9% | viability, T/C [31]: 104% | viability, T/C [32]: 102% | viability, T/C [33]: 102% | viability, T/C [34]: 97.7% | viability, T/C [35]: 102% | viability, T/C [36]: 79%

CCCS(=O)(=O)Nc1ccc(F)c(C(=O)c2c[nH]c3ncc(-c4ccc(Cl)cc4)cc23)c1F + COC1C(OC(N)=O)C(O)C(Oc2ccc3c(O)c(NC(=O)c4ccc(O)c(CC=C(C)C)c4)c(=O)oc3c2C)OC1(C)C
IC50 (second compound 0.0316 µM): > 10 µM | IC50 (second compound 0.1 µM): > 10 µM | IC50 (second compound 0.316 µM): > 10 µM | IC50 (second compound 1 µM): > 10 µM | IC50 (second compound 3.16 µM): > 10 µM | IC50 (second compound 10 µM): > 10 µM | viability, T/C [1]: 102% | viability, T/C [2]: 102% | viability, T/C [3]: 98.2% | viability, T/C [4]: 111% | viability, T/C [5]: 116% | viability, T/C [6]: 80.7% | viability, T/C [7]: 103% | viability, T/C [8]: 94.3% | viability, T/C [9]: 108% | viability, T/C [10]: 111% | viability, T/C [11]: 107% | viability, T/C [12]: 78.6% | viability, T/C [13]: 106% | viability, T/C [14]: 98.1% | viability, T/C [15]: 97% | viability, T/C [16]: 105% | viability, T/C [17]: 118% | viability, T/C [18]: 88.7% | viability, T/C [19]: 102% | viability, T/C [20]: 108% | viability, T/C [21]: 102% | viability, T/C [22]: 109% | viability, T/C [23]: 107% | viability, T/C [24]: 81.7% | viability, T/C [25]: 110% | viability, T/C [26]: 107% | viability, T/C [27]: 100% | viability, T/C [28]: 106% | viability, T/C [29]: 109% | viability, T/C [30]: 79.4% | viability, T/C [31]: 107% | viability, T/C [32]: 102% | viability, T/C [33]: 91.8% | viability, T/C [34]: 113% | viability, T/C [35]: 116% | viability, T/C [36]: 77%
